The record followed here is patent publication US20110250184A1, “METHODS FOR DETERMINING EFFICACY OF A THERAPEUTIC REGIMEN AGAINST DELETERIOUS EFFECTS OF CYTOTOXIC AGENTS IN HUMAN” (priority 2008, published 2011).

This assay has as its system New Zealand white rabbits. Description: Survival studies in rabbits after lethal doses of radiation. The class given is in vivo. The following applies: 120 mg/kg at 24 hours and 15 minutes before lethal doses of radiation. The procedure:
Unlike in the mouse studies, clear evidence of improved repopulation of various hematologic cell lineages was not evident in these preliminary studies. Both solution and suspension formulations were tested.

The structures appear in SMILES notation.

`O=C([O-])c1ccc(/C=C/S(=O)(=O)Cc2ccc(Cl)cc2)cc1.[Na+]` [ON 01210.Na, E-4-Carboxystyryl-4-chlorobenzylsulfone sodium salt]: the “survival relative to vehicle-treated animals” value is on record as “survival benefit”.
